According to publication PMC11468294, “Peptide Amphiphiles as Biodegradable Adjuvants for Efficient Retroviral Gene Delivery” (Advanced Healthcare Materials, 2023):
“Also recorded” adds a separate entry of the source. Where a SMILES comes first, the peptide text is derived from it. Where no end group is shown, it is not given here. The star is where a group is joined. Palmitoyl = CCCCCCCCCCCCCCCC(=O)*; Nonanoyl = CCCCCCCCC(=O)*

How the values were obtained:
HeLa cells = format: in vitro ADME; conditions: HeLa cells; for degradability by cells (in words): 2 µg peptide added to 20,000 cells, d0 (30 min) vs d3, degradable if number and size of aggregates are reduced after 3 days; for degradability (percentual degradation by aggregate number): 2 µg peptide (10 µg mL-1) added to 20,000 cells, 37°C, aggregates > 10 µm2 in 1008 µm × 1008 µm at d3 (72 h) vs d0 (30 min), Proteostat, confocal, three technical replicates
Experimental: Confocal laser scanning microscopy and degradation study with PA library and HeLa cells: Confocal laser scanning microscopy studies were performed for the visualization of the cell‐PA interaction. HeLa cells were seeded one day prior to conducting the assay (20000/well) in an 8‐well IBIDI slide. 2 µL of the preformed peptide fibrils (1 mg mL^−1) were diluted with 2 µL Proteostat (Enzo Life Science, 1 µL stock in 99 µL PBS) and incubated for 10 min and further diluted with medium to receive a final peptide concentration of 10 µg mL^−1. The nucleus of the HeLa cells was stained with Hoechst 33 342 (NucBlue, Thermo Fisher Scientific). The peptide solution mixture was transferred to the HeLa cells and incubated for 30 min at 37°C before washing three times with PBS. The interaction of fibril clusters with cells was monitored after 30 min incubation time on a Stellaris 8 confocal laser scanning microscope (Leica) equipped with a 20x air objective and laser excitation wavelengths of 405 nm (Hoechst), and 561 nm (Proteostat). For the evaluation of aggregate degradation, the samples were further incubated at 37°C for 3 d and analyzed without any additional washing step. The evaluation of aggregate size and number was conducted by analyzing Proteostat stained aggregates via the 3D objects counter function of ImageJ 1.53f51 for 3 individual measurements (area 1008 µm × 1008 µm). […] The number of aggregates were determined by counting aggregates larger than the threshold 10 µm^2 in an area of 1008 µm × 1008 µm and repeated in three technical triplicates.
(§1) 7 Effects of PA modifications on properties and activity
(§2) To investigate the effects of modification in the PA sequence, we created various peptide amphiphiles derived from PA1 by varying the (I) hydrophobic moiety, (II) the linkage chemistry and (III) the peptide sequence (Figure S12, SI chapter 7.1 – 7.3). The color code for sequence representation is yellow for the hydrophobic moiety, blue for cationic amino acids, red for non-polar amino acids, purple for polar uncharged amino acids, and green for anionic amino acids. To be concise, only the summarized information will be discussed, all original data for the peptides are summarized in the (Figure S26 - […]
(§3) Figure S12 Summarized overview of peptide amphiphile library in which systematic variations the original sequence […]
(§4) chemistry and (III) the peptide sequence on infectivity enhancement and degradability (see SI chapter 7.1 – 7.3).
(§5) In the following section a compound is considered infectivity enhancing if n-fold infectivity at 1.3 µM is larger than 2. A compound is considered to form µm-sized aggregates if visible particles were observed in widefield microscopy (brightfield or ThT-staining filter, objective 10x) or confocal […]
(§6) than 1000 kcps in Zeta-Potential measurements.
(§7) For the degradability only the PAs which could be stained with Proteostat (Figure S26) and were visible in microscopy (Figure S15, Figure S18, Figure S21, and Figure S22) were studied in detail. To determine […]
whether a PA is degraded or not, Proteostat stained PAs which are added to Hela cells (2 µg peptide added to 20.000 cells) and studied via confocal laser scanning microscopy. Microscopy is conducted at day 0 (d0, after 30 min of incubation) and at day 3 (d3, after 72 h of incubation). The number of aggregates >10 µm2 is counted via 3D object counter in ImageJ in an area of 1008 µm × 1008 µm.
A PA is considered as degradable if the number and the size of aggregates are reduced after 3 days.
The efficiency is determined by the percentual degradation (aggregate number at d3 / aggregate number at d0). Three technical replicates were evaluated for each sample. A large deviation in number and size of aggregates represents a nonhomogeneous distribution and polymorphism of aggregates.

[1] = test system: HIV-1 infection of TZM-bl cells; assay: HIV-1 infection assay (β-galactosidase luminescence reporter); format: cell-based; conditions: infectivity enhancing if n-fold at 1.3 µM larger than 2
Experimental: HIV‐1 Infection Assay: The effect of peptide fibrils on HIV‐1 infection was studied via a luminescence assay for β‐galactosidase, which was reported by TZM‐bl cells upon infection. 10000 TZM‐bl cells were seeded in 180 µl supplemented DMEM one day prior infection. The cells were inoculated with 20 µl PNF solution 1:1 (v/v) mixed with virus (1:500 dilution) after an incubation time of 10 min. The HIV‐1 infection assay was conducted in three technical replicates and repeated in three independent experiments unless stated otherwise. The assay was conducted as described before.^[ [20] ^]

[2] = Microscopic aggregation (fluorescence / confocal microscopy, derived count rate); format: physicochemical; conditions: fibrils preformed at 1 mg mL-1 in PBS; ThT or Proteostat stain, widefield or confocal microscopy; derived count rate > 1000 kcps as criterion
Experimental: Transmission electron microscopy (TEM) measurements, Thioflavin (ThT), zeta‐potential measurements for fibril characterization, ATR‐IR spectra acquisition and the calculation of β−sheet were prepared and conducted analogous to a previous report.^[ [20], [86] ^] […] Fibrils were defined as distinct, if no visible structures could be identified in fluorescence and brightfield microscopy. […] The derived count rate of the zeta‐potential measurement was used as information on the light scattering intensity and turbidity of the sample as a further indicator for microscopic aggregation.^[ [90] ^]
Fluorescence microscopy: 1 µL Fibrils (1 mg mL^−1) were stained with 9 µL, 50 µM ThT. 10 µL of the stained fibrils (0.1 mg mL^−1) were placed on a microscopy glass. Fluorescence microscopy measurements were performed on a Leica DMi8 microscope with 10x air objective and equipped with a Leica MC170 HD camera with a filter setting λem = 527/30 nm upon excitation at λex = 480/40 nm) and processed with the Leica LASX software.
as §1, §2, §3, §4, §5, §6, §7
whether a PA is degraded or not, Proteostat stained PAs which are added to Hela cells (2 µg peptide added to 20.000 cells) and studied via confocal laser scanning microscopy. […]
In the following, we will distinguish between three aggregation types for fibrillar structures: Fibrils which were not aggregating (below resolution limit of the microscope, approx. 650 nm), moderately aggregating (< 50 µm2) and aggregating to large particles (> 50 µm 2).
7.1 Effects of hydrophobic moiety exchange on properties and activity
To investigate the effects of varying hydrophobic moieties on assembly, aggregation and activity , we

Row | Molecule | degradability by cells (in words) (HeLa cells) | infectivity enhancement of HIV-1 (in words) [1] | formation of µm-sized aggregates (in words) [2] | degradability (percentual degradation by aggregate number) (HeLa cells) [%]
1 | NFYLQVNKINK-NH2 | no good degradability |  |  | 
2 | CCCCCCCCCCCCCCCC(=O)NCC(=O)NCC(=O)NCC(=O)N[C@@H](CO)C(=O)N[C@@H](CO)C(=O)N[C@@H](CCCCN)C(=O)N[C@@H](CCCCN)C(=O)N[C@@H](CCCCN)C(N)=O (Palmitoyl-GGGSSKKK-NH2) |  | Inactive | not forming µm-sized aggregates and forming too few/less aggregates, respectively; also recorded: cannot form µm‐sized aggregates | 
3 | CCCCCCCCCCCCCCCC(=O)N[C@@H](C)C(=O)N[C@@H](CC(C)C)C(=O)N[C@@H](C)C(=O)N[C@@H](C)C(=O)NCC(=O)N[C@@H](CCCCN)C(=O)N[C@@H](CCCCN)C(N)=O [C16-ALAAGKK-NH2] (Palmitoyl-ALAAGKK-NH2) |  |  |  | 87
4 | CCCCCCCCCCCCCCCC(=O)N[C@@H](CC(C)C)C(=O)N[C@@H](CC(N)=O)C(=O)NCC(=O)NCC(=O)N[C@H](C(=O)N[C@@H](CCCCN)C(=O)N[C@@H](CCCCN)C(N)=O)C(C)C [C16-LNGGVKK-NH2] (Palmitoyl-LNGGVKK-NH2) |  |  |  | 48
5 | CCCCCCCCCCCCCCCC(=O)N[C@@H](C)C(=O)N[C@@H](C)C(=O)N[C@H](C(=O)N[C@H](C(=O)N[C@@H](Cc1c[nH]cn1)C(=O)N[C@@H](Cc1c[nH]cn1)C(=O)N[C@@H](CCCCN)C(N)=O)C(C)C)C(C)C [C16-AAVVHHK-NH2] (Palmitoyl-AAVVHHK-NH2) | degraded incompletely |  | very large aggregates | 
6 | C16-AQAKAK [library peptide amphiphile, palmitic acid at the N-terminus] | degraded incompletely |  | very large aggregates | 
7 | CCCCCCCCCCCCCCCC(=O)N[C@@H](CC(N)=O)C(=O)N[C@@H](Cc1ccccc1)C(=O)N[C@@H](Cc1ccc(O)cc1)C(=O)N[C@@H](CC(C)C)C(=O)N[C@@H](CCC(N)=O)C(=O)N[C@H](C(=O)N[C@@H](CC(N)=O)C(=O)N[C@@H](CCCCN)C(=O)N[C@H](C(=O)N[C@@H](CC(N)=O)C(=O)N[C@@H](CCCCN)C(N)=O)[C@@H](C)CC)C(C)C (Palmitoyl-NFYLQVNKINK-NH2) | degraded incompletely |  | very large aggregates | 
8 | CCCCCCCCCCCCCCCC(=O)N[C@@H](CCCCN)C(=O)N[C@@H](Cc1ccc(O)cc1)C(=O)N[C@H](C(=O)N[C@@H](Cc1c[nH]cn1)C(=O)N[C@@H](CCC(N)=O)C(=O)N[C@@H](CC(N)=O)C(=O)N[C@@H](Cc1ccc(O)cc1)C(=O)N[C@H](C(=O)N[C@@H](CCCCN)C(=O)N[C@@H](C)C(=O)N[C@@H](CC(C)C)C(=O)N[C@@H](C)C(=O)NCC(=O)N[C@@H](CCCCN)C(=O)N[C@@H](CC(C)C)C(=O)N[C@H](C(N)=O)C(C)C)[C@@H](C)O)[C@@H](C)CC (Palmitoyl-KYIHQNYTKALAGKLV-NH2) | degraded incompletely |  | very large aggregates | 
9 | C16‐thioester‐CVVVAAAKKK‐NH2 [PA1 variant with thioester linker] |  |  | small, well distributed aggregates | 87
10 | CCCCCCCCCCCCCCCC(=O)N[C@@H](C)C(=O)N[C@@H](CCCCN)C(=O)N[C@@H](C)C(=O)N[C@H](C(=O)NCC(=O)N[C@@H](CCCCN)C(N)=O)C(C)C [C16-AKAVGK-NH2] (Palmitoyl-AKAVGK-NH2) |  |  |  | 89
11 | CCCCCCCCCCCCCCCC(=O)OC[C@H](N)C(=O)N[C@H](C(=O)N[C@H](C(=O)N[C@H](C(=O)N[C@@H](C)C(=O)N[C@@H](C)C(=O)N[C@@H](C)C(=O)N[C@@H](CCCCN)C(=O)N[C@@H](CCCCN)C(=O)N[C@@H](CCCCN)C(N)=O)C(C)C)C(C)C)C(C)C (H-S(Palmitoyl)VVVAAAKKK-NH2) | degraded well |  |  | 
12 | CCCCCCCCCCCCCCCC(=O)N[C@@H](C)C(=O)N[C@H](C(=O)N[C@@H](C)C(=O)N[C@@H](CCCCN)C(=O)N[C@@H](CCCCN)C(=O)N[C@@H](CCCCN)C(N)=O)C(C)C [C16-AVAKKK-NH2] (Palmitoyl-AVAKKK-NH2) |  |  | not forming µm-sized aggregates and forming too few/less aggregates, respectively | 
13 | CCCCCCCCCCCCCCCC(=O)N[C@H](C(=O)N[C@H](C(=O)N[C@@H](C)C(=O)N[C@@H](C)C(=O)N[C@@H](Cc1c[nH]cn1)C(=O)N[C@@H](Cc1c[nH]cn1)C(=O)N[C@@H](Cc1c[nH]cn1)C(N)=O)C(C)C)C(C)C [C16-VVAAHHH-NH2] (Palmitoyl-VVAAHHH-NH2) | increase in size, decrease in number |  | very large aggregates | 
14 | CCCCCCCCC(=O)N[C@H](C(=O)N[C@H](C(=O)N[C@H](C(=O)N[C@@H](C)C(=O)N[C@@H](C)C(=O)N[C@@H](C)C(=O)N[C@@H](CCCCN)C(=O)N[C@@H](CCCCN)C(=O)N[C@@H](CCCCN)C(N)=O)C(C)C)C(C)C)C(C)C [C9] (Nonanoyl-VVVAAAKKK-NH2) | reduced in number of aggregates, but increases in size |  |  | 
15 | CCCCCCCCCCCCCCCC(=O)N[C@@H](CCCCN)C(=O)N[C@H](C(=O)N[C@H](C(=O)N[C@@H](CO)C(=O)N[C@@H](Cc1ccccc1)C(=O)N[C@@H](CCCCN)C(N)=O)[C@@H](C)CC)[C@@H](C)CC [C16-KIISFK-NH2] (Palmitoyl-KIISFK-NH2) | degraded incompletely |  | very large aggregates | 
